Test results published in article PMC4767141, “Discovery of Potent, Orally Bioavailable, Small-Molecule Inhibitors of WNT Signaling from a Cell-Based Pathway Screen” (Journal of Medicinal Chemistry, 2015).

How the values were obtained:
MKK6 = target: T1, MKK6 (Homo sapiens, UniProt P52564); assay: Millipore kinase panel; type: biochemical; conditions: read-out: % Control
T1 construct: purchased Millipore KinaseProfiler (kinases); Cerep (receptors and ion channels)

Plasma stability = type: in vitro ADME
TP (h) (TXA2/PGH2) = target: T2, TP (h) (TXA2/PGH2) (Homo sapiens, UniProt P21731); assay: CEREP binding panel; conditions: antagonist radioligand, read-out: % Inhibition of Control Specific Binding
T2 construct: purchased Millipore KinaseProfiler (kinases); Cerep (receptors and ion channels)

GSK3BETA = target: T3, GSK3BETA (Homo sapiens, UniProt P49841); assay: Millipore kinase panel; type: biochemical; conditions: read-out: % Control
T3 construct: purchased Millipore

IGF-1R = target: T4, IGF-1R (Homo sapiens, UniProt P08069); assay: Millipore kinase panel; type: biochemical; conditions: read-out: % Control
T4 construct: purchased Millipore KinaseProfiler (kinases); Cerep (receptors and ion channels)

AURKA = target: T5, AURKA (Homo sapiens, UniProt O14965); assay: Millipore kinase panel; type: biochemical; conditions: read-out: % Control
T5 construct: purchased Millipore KinaseProfiler (kinases); Cerep (receptors and ion channels)

EGFR(L858R) = target: T6, EGFR(L858R) (Homo sapiens, UniProt P00533, L858R); assay: Millipore kinase panel; type: biochemical; conditions: read-out: % Control
T6 construct: purchased Millipore KinaseProfiler (kinases); Cerep (receptors and ion channels)

CYP450 2C9 = CYP450 2C9 (Homo sapiens, UniProt P11712); assay: CYP450 inhibition; type: in vitro ADME
FGFR1(V561M) = target: T7, FGFR1(V561M) (Homo sapiens, UniProt P11362, V561M); assay: Millipore kinase panel; type: biochemical; conditions: read-out: % Control
T7 construct: purchased Millipore KinaseProfiler (kinases); Cerep (receptors and ion channels)

AURKC = target: T8, AURKC (Homo sapiens, UniProt Q9UQB9); assay: Millipore kinase panel; type: biochemical; conditions: read-out: % Control
T8 construct: purchased Millipore KinaseProfiler (kinases); Cerep (receptors and ion channels)

MER = target: T9, MER (Homo sapiens, UniProt Q12866); assay: Millipore kinase panel; type: biochemical; conditions: read-out: % Control
T9 construct: purchased Millipore KinaseProfiler (kinases); Cerep (receptors and ion channels)

SYK = target: T10, SYK (Homo sapiens, UniProt P43405); assay: Millipore kinase panel; type: biochemical; conditions: read-out: % Control
T10 construct: purchased Millipore KinaseProfiler (kinases); Cerep (receptors and ion channels)

CKIT(V654A) = target: T11, CKIT(V654A) (Homo sapiens, UniProt P10721, V654A); assay: Millipore kinase panel; type: biochemical; conditions: read-out: % Control
T11 construct: purchased Millipore KinaseProfiler (kinases); Cerep (receptors and ion channels)

PI3K GAMMA = target: T12, PI3K GAMMA (Homo sapiens, UniProt P48736); assay: Millipore kinase panel; type: biochemical; conditions: read-out: % Control
T12 construct: purchased Millipore KinaseProfiler (kinases); Cerep (receptors and ion channels)

SAPK2A(T106M) = target: T13, SAPK2A(T106M) (Homo sapiens, UniProt Q16539, T106M); assay: Millipore kinase panel; type: biochemical; conditions: read-out: % Control
T13 construct: purchased Millipore KinaseProfiler (kinases); Cerep (receptors and ion channels)

PKBGAMMA = target: T14, PKBGAMMA (Homo sapiens, UniProt Q9Y243); assay: Millipore kinase panel; type: biochemical; conditions: read-out: % Control
T14 construct: purchased Millipore KinaseProfiler (kinases); Cerep (receptors and ion channels)

PI3K DELTA = target: T15, PI3K DELTA (Homo sapiens, UniProt O00329); assay: Millipore kinase panel; type: biochemical; conditions: read-out: % Control
T15 construct: purchased Millipore KinaseProfiler (kinases); Cerep (receptors and ion channels)

RET(V804M) = target: T16, RET(V804M) (Homo sapiens, UniProt P07949, V804M); assay: Millipore kinase panel; type: biochemical; conditions: read-out: % Control
T16 construct: purchased Millipore KinaseProfiler (kinases); Cerep (receptors and ion channels)

IR = target: T17, IR (Homo sapiens, UniProt P06213); assay: Millipore kinase panel; type: biochemical; conditions: read-out: % Control
T17 construct: purchased Millipore KinaseProfiler (kinases); Cerep (receptors and ion channels)

SRC(1-530) = target: T18, SRC(1-530) (Homo sapiens, UniProt P12931); assay: Millipore kinase panel; type: biochemical; conditions: read-out: % Control
T18 construct: purchased Millipore KinaseProfiler (kinases); Cerep (receptors and ion channels)

TSSK2 = target: T19, TSSK2 (Homo sapiens, UniProt Q96PF2); assay: Millipore kinase panel; type: biochemical; conditions: read-out: % Control
T19 construct: purchased Millipore KinaseProfiler (kinases); Cerep (receptors and ion channels)

ABL(T315I) = target: T20, ABL(T315I) (Homo sapiens, UniProt P00519, T315I); assay: Millipore kinase panel; type: biochemical; conditions: read-out: % Control
T20 construct: purchased Millipore KinaseProfiler (kinases); Cerep (receptors and ion channels)

EGFR(T790M,L858R) = target: T21, EGFR(T790M,L858R) (Homo sapiens, UniProt P00533, L858R/T790M); assay: Millipore kinase panel; type: biochemical; conditions: read-out: % Control
T21 construct: purchased Millipore KinaseProfiler (kinases); Cerep (receptors and ion channels)

RET (V804L) = target: T22, RET (V804L) (Homo sapiens, UniProt P07949, V804L); assay: Millipore kinase panel; type: biochemical; conditions: read-out: % Control
T22 construct: purchased Millipore KinaseProfiler (kinases); Cerep (receptors and ion channels)

BZD (central) = assay: CEREP binding panel; conditions: 10 μM, agonist radioligand

T12 sequence (P48736 whole entry): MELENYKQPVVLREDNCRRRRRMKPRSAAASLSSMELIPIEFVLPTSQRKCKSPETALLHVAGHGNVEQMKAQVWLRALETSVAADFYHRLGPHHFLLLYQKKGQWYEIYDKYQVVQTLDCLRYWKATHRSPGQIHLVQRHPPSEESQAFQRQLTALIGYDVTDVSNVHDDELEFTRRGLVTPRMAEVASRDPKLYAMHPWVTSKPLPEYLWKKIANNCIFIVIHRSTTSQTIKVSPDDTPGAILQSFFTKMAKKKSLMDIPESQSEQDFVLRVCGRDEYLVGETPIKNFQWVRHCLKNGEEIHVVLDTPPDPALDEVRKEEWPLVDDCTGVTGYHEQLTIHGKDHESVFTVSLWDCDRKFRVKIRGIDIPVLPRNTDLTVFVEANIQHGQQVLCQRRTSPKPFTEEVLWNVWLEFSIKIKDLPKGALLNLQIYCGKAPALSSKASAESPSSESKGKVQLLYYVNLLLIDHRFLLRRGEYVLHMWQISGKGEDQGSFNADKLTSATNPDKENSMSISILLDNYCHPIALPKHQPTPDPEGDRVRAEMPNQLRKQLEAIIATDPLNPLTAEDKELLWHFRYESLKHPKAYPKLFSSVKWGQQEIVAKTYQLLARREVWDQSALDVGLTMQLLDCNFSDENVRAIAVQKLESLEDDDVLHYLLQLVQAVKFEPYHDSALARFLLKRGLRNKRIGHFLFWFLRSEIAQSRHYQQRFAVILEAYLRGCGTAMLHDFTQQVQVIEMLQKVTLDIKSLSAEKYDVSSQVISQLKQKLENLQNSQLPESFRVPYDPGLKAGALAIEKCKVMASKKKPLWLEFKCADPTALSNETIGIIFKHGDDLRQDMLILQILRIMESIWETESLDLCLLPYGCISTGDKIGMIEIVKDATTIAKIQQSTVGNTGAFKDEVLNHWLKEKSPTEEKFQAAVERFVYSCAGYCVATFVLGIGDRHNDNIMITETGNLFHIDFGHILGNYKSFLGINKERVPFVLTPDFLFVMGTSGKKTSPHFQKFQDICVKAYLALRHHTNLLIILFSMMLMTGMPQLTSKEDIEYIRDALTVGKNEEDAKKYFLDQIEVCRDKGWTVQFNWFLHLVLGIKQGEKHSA
T14 sequence (Q9Y243 whole entry): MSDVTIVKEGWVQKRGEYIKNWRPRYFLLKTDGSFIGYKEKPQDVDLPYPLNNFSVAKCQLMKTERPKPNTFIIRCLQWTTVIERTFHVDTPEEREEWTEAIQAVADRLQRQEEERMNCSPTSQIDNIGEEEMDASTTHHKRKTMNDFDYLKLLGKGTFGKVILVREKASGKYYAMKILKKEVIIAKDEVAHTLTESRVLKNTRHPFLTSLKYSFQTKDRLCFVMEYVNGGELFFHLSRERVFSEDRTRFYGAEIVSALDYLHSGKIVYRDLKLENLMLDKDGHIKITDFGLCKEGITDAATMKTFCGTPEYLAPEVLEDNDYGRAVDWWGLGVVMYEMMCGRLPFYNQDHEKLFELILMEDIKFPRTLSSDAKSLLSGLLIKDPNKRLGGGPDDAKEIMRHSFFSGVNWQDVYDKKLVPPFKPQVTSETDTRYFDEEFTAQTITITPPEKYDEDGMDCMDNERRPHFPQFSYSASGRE
T4 sequence (P08069 31-1367): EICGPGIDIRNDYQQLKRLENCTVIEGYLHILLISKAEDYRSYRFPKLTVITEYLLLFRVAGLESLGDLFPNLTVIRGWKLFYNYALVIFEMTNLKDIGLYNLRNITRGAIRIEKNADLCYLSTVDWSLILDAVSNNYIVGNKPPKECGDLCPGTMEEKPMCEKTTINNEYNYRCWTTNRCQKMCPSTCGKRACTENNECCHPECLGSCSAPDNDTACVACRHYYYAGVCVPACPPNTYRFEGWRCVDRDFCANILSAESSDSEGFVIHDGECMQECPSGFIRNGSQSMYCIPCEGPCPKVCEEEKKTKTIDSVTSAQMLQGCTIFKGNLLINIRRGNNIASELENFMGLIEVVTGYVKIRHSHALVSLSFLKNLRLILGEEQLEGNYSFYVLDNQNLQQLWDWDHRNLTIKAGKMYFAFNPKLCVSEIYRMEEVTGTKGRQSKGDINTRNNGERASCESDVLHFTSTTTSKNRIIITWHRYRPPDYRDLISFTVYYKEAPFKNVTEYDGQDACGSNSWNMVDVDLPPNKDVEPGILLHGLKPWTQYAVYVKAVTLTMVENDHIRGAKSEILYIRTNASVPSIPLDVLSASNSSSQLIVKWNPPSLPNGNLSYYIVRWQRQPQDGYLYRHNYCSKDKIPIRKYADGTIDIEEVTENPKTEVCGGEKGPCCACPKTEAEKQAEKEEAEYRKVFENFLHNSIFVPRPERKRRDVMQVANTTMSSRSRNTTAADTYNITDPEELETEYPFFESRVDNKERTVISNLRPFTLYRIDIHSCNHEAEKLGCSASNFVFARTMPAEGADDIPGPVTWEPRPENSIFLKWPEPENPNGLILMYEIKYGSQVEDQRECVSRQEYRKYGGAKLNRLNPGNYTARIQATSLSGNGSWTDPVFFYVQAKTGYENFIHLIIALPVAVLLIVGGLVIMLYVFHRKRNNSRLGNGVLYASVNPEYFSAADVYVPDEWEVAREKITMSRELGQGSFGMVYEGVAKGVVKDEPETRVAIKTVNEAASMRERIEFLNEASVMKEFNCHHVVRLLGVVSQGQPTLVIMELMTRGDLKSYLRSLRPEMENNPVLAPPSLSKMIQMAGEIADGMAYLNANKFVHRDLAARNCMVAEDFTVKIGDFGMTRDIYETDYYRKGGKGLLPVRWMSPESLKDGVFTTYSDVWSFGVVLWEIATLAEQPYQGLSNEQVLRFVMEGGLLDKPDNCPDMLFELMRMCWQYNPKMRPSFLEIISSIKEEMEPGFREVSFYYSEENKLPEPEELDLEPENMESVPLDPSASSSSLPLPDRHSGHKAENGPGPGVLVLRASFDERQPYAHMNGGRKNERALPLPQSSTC
T8 sequence (Q9UQB9 whole entry): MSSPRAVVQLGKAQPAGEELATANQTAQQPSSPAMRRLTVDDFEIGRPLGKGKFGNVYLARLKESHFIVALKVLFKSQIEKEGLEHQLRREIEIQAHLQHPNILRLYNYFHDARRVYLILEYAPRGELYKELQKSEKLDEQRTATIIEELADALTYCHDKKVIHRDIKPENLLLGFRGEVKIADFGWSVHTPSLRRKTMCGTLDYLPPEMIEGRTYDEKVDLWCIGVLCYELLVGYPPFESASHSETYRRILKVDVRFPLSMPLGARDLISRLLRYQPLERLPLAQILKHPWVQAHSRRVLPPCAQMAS
T17 sequence (P06213 28-1382): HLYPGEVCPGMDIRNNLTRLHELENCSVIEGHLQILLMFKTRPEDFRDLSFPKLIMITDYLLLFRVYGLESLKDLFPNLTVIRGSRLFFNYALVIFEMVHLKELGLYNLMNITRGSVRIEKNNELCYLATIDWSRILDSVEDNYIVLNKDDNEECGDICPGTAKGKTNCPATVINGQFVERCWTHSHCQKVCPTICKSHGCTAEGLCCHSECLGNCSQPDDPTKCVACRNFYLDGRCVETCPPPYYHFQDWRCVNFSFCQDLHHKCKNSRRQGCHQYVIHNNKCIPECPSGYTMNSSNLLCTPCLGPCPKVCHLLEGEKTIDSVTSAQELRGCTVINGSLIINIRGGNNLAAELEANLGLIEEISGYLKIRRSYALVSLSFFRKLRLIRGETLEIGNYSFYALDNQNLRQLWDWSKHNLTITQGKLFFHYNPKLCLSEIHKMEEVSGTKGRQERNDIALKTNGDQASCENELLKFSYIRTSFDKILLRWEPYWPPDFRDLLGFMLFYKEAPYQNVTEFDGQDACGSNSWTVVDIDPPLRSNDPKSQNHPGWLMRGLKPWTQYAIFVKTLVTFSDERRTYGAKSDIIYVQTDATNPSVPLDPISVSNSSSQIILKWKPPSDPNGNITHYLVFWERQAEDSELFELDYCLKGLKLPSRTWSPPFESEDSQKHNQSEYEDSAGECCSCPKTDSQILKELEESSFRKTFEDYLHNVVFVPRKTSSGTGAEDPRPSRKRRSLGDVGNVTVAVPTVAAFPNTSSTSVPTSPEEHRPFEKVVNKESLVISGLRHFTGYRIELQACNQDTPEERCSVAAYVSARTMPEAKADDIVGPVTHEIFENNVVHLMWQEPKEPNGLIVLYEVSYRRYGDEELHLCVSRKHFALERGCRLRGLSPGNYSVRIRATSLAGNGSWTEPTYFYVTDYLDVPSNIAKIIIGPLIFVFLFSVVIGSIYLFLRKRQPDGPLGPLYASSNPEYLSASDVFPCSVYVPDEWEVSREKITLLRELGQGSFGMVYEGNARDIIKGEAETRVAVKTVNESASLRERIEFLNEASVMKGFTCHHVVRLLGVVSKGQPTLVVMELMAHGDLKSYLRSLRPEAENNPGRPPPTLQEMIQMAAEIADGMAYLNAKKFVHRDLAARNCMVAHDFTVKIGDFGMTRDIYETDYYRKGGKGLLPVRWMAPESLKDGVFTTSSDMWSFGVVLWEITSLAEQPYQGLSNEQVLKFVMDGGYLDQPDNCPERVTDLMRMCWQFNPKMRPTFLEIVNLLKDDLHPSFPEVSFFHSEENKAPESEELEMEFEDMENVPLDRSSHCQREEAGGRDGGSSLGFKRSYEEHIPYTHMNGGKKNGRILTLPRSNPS
Sequence of CYP450 2C9 (P11712 whole entry): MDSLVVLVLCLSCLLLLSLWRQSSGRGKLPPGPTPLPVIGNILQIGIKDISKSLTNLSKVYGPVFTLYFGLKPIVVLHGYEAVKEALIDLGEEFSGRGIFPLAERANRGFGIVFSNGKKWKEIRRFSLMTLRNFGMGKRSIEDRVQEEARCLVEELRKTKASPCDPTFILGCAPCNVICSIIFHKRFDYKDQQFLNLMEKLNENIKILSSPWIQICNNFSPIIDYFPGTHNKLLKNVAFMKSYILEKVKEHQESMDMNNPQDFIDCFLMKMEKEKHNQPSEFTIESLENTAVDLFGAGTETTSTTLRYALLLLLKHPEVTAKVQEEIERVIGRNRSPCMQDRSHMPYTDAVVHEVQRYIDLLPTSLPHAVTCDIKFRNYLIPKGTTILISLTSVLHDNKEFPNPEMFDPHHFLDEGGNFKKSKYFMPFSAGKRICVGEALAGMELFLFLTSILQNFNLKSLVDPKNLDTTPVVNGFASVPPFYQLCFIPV

In the case of `O=C1NCCC12CCN(c1c(Cl)cncc1-c1ccc(N3CCOCC3)cc1)CC2` [Compound 44, 8-(3-Chloro-5-(4-morpholin-4-ylphenyl)pyridin-4-yl)-2,8-diazaspiro[4.5]decan-1-one], the remaining activity at 1 µM (MKK6) is reported as 48%, the plasma instability (Plasma stability) is reported as “no plasma instability was observed” and the inhibition at 10 µM (TP (h) (TXA2/PGH2)) is reported as 14%. For the same compound, the remaining activity at 1 µM (GSK3BETA) was -25%.

For `Cn1cc(-c2ccc(-c3cncc(Cl)c3N3CCC4(CCNC4=O)CC3)cc2)cn1` [Compound 74, 8-(3-Chloro-5-(4-(1-methyl-1H-pyrazol-4-yl)phenyl)pyridin-4-yl)-2,8-diazaspiro[4.5]decan-1-one], the remaining activity at 1 µM (IGF-1R) was 5%, the remaining activity at 1 µM (AURKA) was 6% and the remaining activity at 1 µM (EGFR(L858R)) was 1%. It also gave an IC50 (CYP450 2C9) of 4.2 µM, a remaining activity at 1 µM (FGFR1(V561M)) of -8% and a remaining activity at 1 µM (AURKC) of -10%. The remaining activity at 1 µM (MER) was -6%, the remaining activity at 1 µM (SYK) was 5% and the remaining activity at 1 µM (CKIT(V654A)) was -16%. For the same compound, the remaining activity at 1 µM (PI3K GAMMA) was 2%, the remaining activity at 1 µM (SAPK2A(T106M)) was -8% and the remaining activity at 1 µM (PKBGAMMA) was -5%. For the same compound, the remaining activity at 1 µM (PI3K DELTA) was -2%, the remaining activity at 1 µM (RET(V804M)) was -8% and the remaining activity at 1 µM (IR) was -8%. It also gave a remaining activity at 1 µM (SRC(1-530)) of -8%, a remaining activity at 1 µM (TSSK2) of -1% and a remaining activity at 1 µM (ABL(T315I)) of 7%. The remaining activity at 1 µM (EGFR(T790M,L858R)) was -4%, the remaining activity at 1 µM (RET (V804L)) was -8% and the “% Inhibition of Control Specific Binding” value (BZD (central)) was 18%.
